In brackets after ≈: the same amount, converted by molar mass.
Tests used:
Candida albicans = assay: Antifungal activity against Candida albicans ATCC 90028 assessed as fungal growth inhibition incubated for 36 hrs by resazurin dye based analysis; type: functional
Cryptococcus neoformans = assay: Antifungal activity against Cryptococcus neoformans ATCC 208821 assessed as fungal growth inhibition incubated for 36 hrs by resazurin dye based analysis; type: functional
Escherichia coli = assay: Antibacterial activity against Escherichia coli ATCC 25922 assessed as inhibition of bacterial growth measured after 18 hrs by resazurin dye based analysis; type: functional
Klebsiella pneumoniae = assay: Antibacterial activity against Klebsiella pneumoniae ATCC 700603 assessed as inhibition of bacterial growth measured after 18 hrs by resazurin dye based analysis; type: functional
Pseudomonas aeruginosa = assay: Antibacterial activity against Pseudomonas aeruginosa ATCC 27853 assessed as inhibition of bacterial growth measured after 18 hrs by resazurin dye based analysis; type: functional
Staphylococcus aureus = assay: Antibacterial activity against methicillin-resistant Staphylococcus aureus ATCC 43300 assessed as inhibition of bacterial growth measured after 18 hrs by resazurin dye based analysis; type: functional
Acinetobacter baumannii = assay: Antibacterial activity against Acinetobacter baumannii ATCC 19606 assessed as inhibition of bacterial growth measured after 18 hrs by resazurin dye based analysis; type: functional
[1] = Cytotoxicity against HEK293 cells assessed as cell growth inhibition measured after 20 hrs by resazurin dye based assay; type: toxicity; conditions: human

OC(Cn1cncn1)(Cn1cncn1)c1ccc(F)cc1F [FLUCONAZOLE]
MIC (Candida albicans): 0.4 µM (≈ 0.123 µg/mL) | MIC (Cryptococcus neoformans): 26 µM (≈ 7.96 µg/mL)

CC[C@H]1OC(=O)[C@H](C)[C@@H](O[C@H]2C[C@@](C)(OC)[C@@H](O)[C@H](C)O2)[C@H](C)[C@@H](O[C@@H]2O[C@H](C)C[C@H](N(C)C)[C@H]2O)[C@](C)(O)C[C@@H](C)C(=O)[C@H](C)[C@@H](O)[C@]1(C)O [ERYTHROMYCIN]
MIC (Escherichia coli): 174 µM (≈ 128 µg/mL)

C[C@]1(C(=O)O)CCC[C@]2(C)c3cc(OC(=O)NCCCNCCCCCCCN)ccc3CC[C@@H]12.O=C(O)C(F)(F)F.O=C(O)C(F)(F)F
MIC (Klebsiella pneumoniae): > 44.7 µM | MIC (Escherichia coli): > 44.7 µM | MIC (Pseudomonas aeruginosa): > 44.7 µM | MIC (Staphylococcus aureus): > 44.7 µM | MIC (Acinetobacter baumannii): > 44.7 µM | MIC (Candida albicans): > 44.7 µM | MIC (Cryptococcus neoformans): > 44.7 µM | IC50 at 20 h [1]: > 44.7 µM

C[C@]1(C(=O)NCCCNCCCCCCCCCCCCNCCCNC(=O)[C@@]2(C)CCC[C@]3(C)c4cc(O)ccc4CC[C@@H]23)CCC[C@]2(C)c3cc(O)ccc3CC[C@@H]12.O=C(O)C(F)(F)F.O=C(O)C(F)(F)F
MIC (Klebsiella pneumoniae): > 30.3 µM | MIC (Escherichia coli): > 30.3 µM | MIC (Pseudomonas aeruginosa): > 30.3 µM | MIC (Staphylococcus aureus): ≤ 0.24 µM | MIC (Acinetobacter baumannii): > 30.3 µM | MIC (Candida albicans): 7.58 µM | MIC (Cryptococcus neoformans): ≤ 0.24 µM | IC50 at 20 h [1]: > 30.3 µM

CCCCCNC(=O)[C@@]1(C)CCC[C@]2(C)c3cc(OC(=O)CCCNCCCCCCCCCCCCNCCCNC(=O)Oc4ccc5c(c4)[C@@]4(C)CCC[C@](C)(C(=O)NCCCCC)[C@@H]4CC5)ccc3CC[C@@H]12.O=C(O)C(F)(F)F.O=C(O)C(F)(F)F
MIC (Klebsiella pneumoniae): > 25 µM | MIC (Escherichia coli): > 25 µM | MIC (Pseudomonas aeruginosa): > 25 µM | MIC (Staphylococcus aureus): 1.56 µM | MIC (Acinetobacter baumannii): > 25 µM | MIC (Candida albicans): ≤ 0.19 µM | MIC (Cryptococcus neoformans): ≤ 0.19 µM | IC50 at 20 h [1]: > 25 µM

CCCCCNC(=O)[C@@]1(C)CCC[C@]2(C)c3cc(OC(=O)CCCNCCCCCCCCNCCCNC(=O)Oc4ccc5c(c4)[C@@]4(C)CCC[C@](C)(C(=O)NCCCCC)[C@@H]4CC5)ccc3CC[C@@H]12.O=C(O)C(F)(F)F.O=C(O)C(F)(F)F
MIC (Klebsiella pneumoniae): > 26.1 µM | MIC (Escherichia coli): > 26.1 µM | MIC (Pseudomonas aeruginosa): > 26.1 µM | MIC (Staphylococcus aureus): 1.63 µM | MIC (Acinetobacter baumannii): > 26.1 µM | MIC (Candida albicans): ≤ 0.2 µM | MIC (Cryptococcus neoformans): ≤ 0.2 µM | IC50 at 20 h [1]: > 26.1 µM

C[C@]1(C(=O)NCCCNCCCCCCCCN)CCC[C@]2(C)c3cc(OC(=O)NCCCNCCCCCCCCN)ccc3CC[C@@H]12.O=C(O)C(F)(F)F.O=C(O)C(F)(F)F.O=C(O)C(F)(F)F.O=C(O)C(F)(F)F
MIC (Klebsiella pneumoniae): > 28 µM | MIC (Escherichia coli): > 28 µM | MIC (Pseudomonas aeruginosa): > 28 µM | MIC (Staphylococcus aureus): > 28 µM | MIC (Acinetobacter baumannii): > 28 µM | MIC (Candida albicans): > 28 µM | MIC (Cryptococcus neoformans): > 28 µM | IC50 at 20 h [1]: > 28 µM

C[C@@]12CCC[C@](C)(C(=O)O)[C@H]1CCc1ccc(OC(=O)CCCNCCCCNCCCNC(=O)Oc3ccc4c(c3)[C@@]3(C)CCC[C@](C)(C(=O)O)[C@@H]3CC4)cc12.O=C(O)C(F)(F)F.O=C(O)C(F)(F)F
MIC (Klebsiella pneumoniae): > 31 µM | MIC (Escherichia coli): > 31 µM | MIC (Pseudomonas aeruginosa): > 31 µM | MIC (Staphylococcus aureus): > 31 µM | MIC (Acinetobacter baumannii): > 31 µM | MIC (Candida albicans): 7.76 µM | MIC (Cryptococcus neoformans): 7.76 µM | IC50 at 20 h [1]: > 31 µM

COC(=O)[C@@]1(C)CCC[C@]2(C)c3cc(OC(=O)CCCNCCCCCCNCCCNC(=O)Oc4ccc5c(c4)[C@@]4(C)CCC[C@](C)(C(=O)OC)[C@@H]4CC5)ccc3CC[C@@H]12.O=C(O)C(F)(F)F.O=C(O)C(F)(F)F
MIC (Klebsiella pneumoniae): > 29.4 µM | MIC (Escherichia coli): 14.7 µM | MIC (Pseudomonas aeruginosa): > 29.4 µM | MIC (Staphylococcus aureus): ≤ 0.23 µM | MIC (Acinetobacter baumannii): > 29.4 µM | MIC (Candida albicans): ≤ 0.23 µM | MIC (Cryptococcus neoformans): 0.46 µM | IC50 at 20 h [1]: 4.68 µM

C[C@]1(C(=O)NCCCNCCCCCCCCN)CCC[C@]2(C)c3cc(O)ccc3CC[C@@H]12.O=C(O)C(F)(F)F.O=C(O)C(F)(F)F
MIC (Klebsiella pneumoniae): > 46.7 µM | MIC (Escherichia coli): > 46.7 µM | MIC (Pseudomonas aeruginosa): > 46.7 µM | MIC (Staphylococcus aureus): 46.7 µM | MIC (Acinetobacter baumannii): > 46.7 µM | MIC (Candida albicans): > 46.7 µM | MIC (Cryptococcus neoformans): > 46.7 µM | IC50 at 20 h [1]: > 46.7 µM

COC(=O)[C@@]1(C)CCC[C@]2(C)c3cc(OC(=O)CCCNCCCCNCCCNC(=O)Oc4ccc5c(c4)[C@@]4(C)CCC[C@](C)(C(=O)OC)[C@@H]4CC5)ccc3CC[C@@H]12.O=C(O)C(F)(F)F.O=C(O)C(F)(F)F
MIC (Klebsiella pneumoniae): > 30.2 µM | MIC (Escherichia coli): 30.2 µM | MIC (Pseudomonas aeruginosa): > 30.2 µM | MIC (Staphylococcus aureus): 1.89 µM | MIC (Acinetobacter baumannii): 30.2 µM | MIC (Candida albicans): 15.1 µM | MIC (Cryptococcus neoformans): 1.89 µM | IC50 at 20 h [1]: 16.4 µM

C[C@]1(C(=O)NCCCNCCCCCCCN)CCC[C@]2(C)c3cc(O)ccc3CC[C@@H]12.O=C(O)C(F)(F)F.O=C(O)C(F)(F)F
MIC (Klebsiella pneumoniae): > 47.6 µM | MIC (Escherichia coli): > 47.6 µM | MIC (Pseudomonas aeruginosa): > 47.6 µM | MIC (Staphylococcus aureus): > 47.6 µM | MIC (Acinetobacter baumannii): > 47.6 µM | MIC (Candida albicans): > 47.6 µM | MIC (Cryptococcus neoformans): > 47.6 µM | IC50 at 20 h [1]: > 47.6 µM

C[C@]1(C(=O)NCCCNCCCCN)CCC[C@]2(C)c3cc(O)ccc3CC[C@@H]12
MIC (Klebsiella pneumoniae): > 50.8 µM | MIC (Escherichia coli): > 50.8 µM | MIC (Pseudomonas aeruginosa): > 50.8 µM | MIC (Staphylococcus aureus): > 50.8 µM | MIC (Acinetobacter baumannii): > 50.8 µM | MIC (Candida albicans): > 50.8 µM | MIC (Cryptococcus neoformans): > 50.8 µM

C[C@]1(C(=O)O)CCC[C@]2(C)c3cc(OC(=O)NCCCNCCCCCCCCCCN)ccc3CC[C@@H]12
MIC (Klebsiella pneumoniae): > 42.2 µM | MIC (Escherichia coli): > 42.2 µM | MIC (Pseudomonas aeruginosa): > 42.2 µM | MIC (Staphylococcus aureus): > 42.2 µM | MIC (Acinetobacter baumannii): > 42.2 µM | MIC (Candida albicans): > 42.2 µM | MIC (Cryptococcus neoformans): > 42.2 µM

C[C@]1(C(=O)NCCCNCCCCCCCNCCCNC(=O)[C@@]2(C)CCC[C@]3(C)c4cc(O)ccc4CC[C@@H]23)CCC[C@]2(C)c3cc(O)ccc3CC[C@@H]12.O=C(O)C(F)(F)F.O=C(O)C(F)(F)F
MIC (Klebsiella pneumoniae): > 32.5 µM | MIC (Escherichia coli): 32.5 µM | MIC (Pseudomonas aeruginosa): > 32.5 µM | MIC (Staphylococcus aureus): 32.5 µM | MIC (Acinetobacter baumannii): > 32.5 µM | MIC (Candida albicans): 32.5 µM | MIC (Cryptococcus neoformans): 32.5 µM | IC50 at 20 h [1]: 19.1 µM

CN[C@H](CC(C)C)C(=O)N[C@H]1C(=O)N[C@@H](CC(N)=O)C(=O)N[C@H]2C(=O)N[C@H]3C(=O)N[C@H](C(=O)N[C@H](C(=O)O)c4cc(O)cc(O)c4-c4cc3ccc4O)[C@H](O)c3ccc(c(Cl)c3)Oc3cc2cc(c3O[C@@H]2O[C@H](CO)[C@@H](O)[C@H](O)[C@H]2O[C@H]2C[C@](C)(N)[C@H](O)[C@H](C)O2)Oc2ccc(cc2Cl)[C@H]1O [VANCOMYCIN]
MIC (Staphylococcus aureus): 0.7 µM (≈ 1.01 µg/mL)

C[C@]1(C(=O)O)CCC[C@]2(C)c3cc(OC(=O)CCCNCCCCCCCCNCCCNC(=O)Oc4ccc5c(c4)[C@@]4(C)CCC[C@](C)(C(=O)O)[C@@H]4CC5)ccc3CC[C@@H]12.O=C(O)C(F)(F)F.O=C(O)C(F)(F)F
MIC (Klebsiella pneumoniae): > 29.4 µM | MIC (Escherichia coli): > 29.4 µM | MIC (Pseudomonas aeruginosa): > 29.4 µM | MIC (Staphylococcus aureus): > 29.4 µM | MIC (Acinetobacter baumannii): > 29.4 µM | MIC (Candida albicans): 14.7 µM | MIC (Cryptococcus neoformans): ≤ 0.23 µM | IC50 at 20 h [1]: > 29.4 µM

CCCCCNC(=O)[C@@]1(C)CCC[C@]2(C)c3cc(OC(=O)CCCNCCCCCCCCCCNCCCNC(=O)Oc4ccc5c(c4)[C@@]4(C)CCC[C@](C)(C(=O)NCCCCC)[C@@H]4CC5)ccc3CC[C@@H]12.O=C(O)C(F)(F)F.O=C(O)C(F)(F)F
MIC (Klebsiella pneumoniae): > 25.5 µM | MIC (Escherichia coli): > 25.5 µM | MIC (Pseudomonas aeruginosa): > 25.5 µM | MIC (Staphylococcus aureus): ≤ 0.2 µM | MIC (Acinetobacter baumannii): > 25.5 µM | MIC (Candida albicans): ≤ 0.2 µM | MIC (Cryptococcus neoformans): 3.19 µM | IC50 at 20 h [1]: > 25.5 µM

C[C@]1(C(=O)O)CCC[C@]2(C)c3cc(OC(=O)NCCCNCCCCN)ccc3CC[C@@H]12
MIC (Klebsiella pneumoniae): > 47.5 µM | MIC (Escherichia coli): > 47.5 µM | MIC (Pseudomonas aeruginosa): > 47.5 µM | MIC (Staphylococcus aureus): > 47.5 µM | MIC (Acinetobacter baumannii): > 47.5 µM | MIC (Candida albicans): > 47.5 µM | MIC (Cryptococcus neoformans): > 47.5 µM

C[C@]1(C(=O)O)CCC[C@]2(C)c3cc(O)ccc3CC[C@@H]12 [PODOCARIC ACID]
MIC (Klebsiella pneumoniae): > 117 µM | MIC (Escherichia coli): > 117 µM | MIC (Pseudomonas aeruginosa): > 117 µM | MIC (Staphylococcus aureus): > 117 µM | MIC (Acinetobacter baumannii): > 117 µM | MIC (Candida albicans): > 117 µM | MIC (Cryptococcus neoformans): > 117 µM

C[C@H]1c2cccc(O)c2C(=O)C2=C(O)[C@]3(O)C(=O)C(C(N)=O)=C(O)[C@@H](N(C)C)[C@@H]3[C@@H](O)[C@@H]21 [DOXYCYCLINE]
MIC (Pseudomonas aeruginosa): 90 µM (≈ 40 µg/mL)

COLISTIN
MIC (Klebsiella pneumoniae): 0.2 µM | MIC (Escherichia coli): 0.1 µM | MIC (Pseudomonas aeruginosa): 0.2 µM | MIC (Acinetobacter baumannii): 0.2 µM

Reference: ChEMBL document CHEMBL5143685, “Valorisation of the diterpene podocarpic acid - Antibiotic and antibiotic enhancing activities of polyamine conjugates” (Bioorg Med Chem, 2022)
